How the values were obtained:
[1] = Volume of distribution at steady state in Sprague-Dawley rat at 3 mg/kg, iv by LC-MS/MS analysis; assay type: ADME, organism-based; conditions: in vivo, read-out: Vdss
CDK9/cyclin T1 = CDK9/cyclin T1 (Homo sapiens, UniProt P50750)
Description: Inhibition of CDK9/cyclin T1 (unknown origin)

[2] = Toxicity in human U-87 MG cells xenografted BALB/c mouse assessed as body weight loss at 10 mg/kg, po qd for 16 days relative to control; assay type: organism-based; conditions: in vivo, 384 h, time 16 day
[3] = AUC (0 to t) in BALB/c mouse at 10 mg/kg, po by LC-MS/MS analysis; assay type: ADME, organism-based; design: dose 10 mg/kg; conditions: in vivo
[4] = Half life in BALB/c mouse at 10 mg/kg, po by LC-MS/MS analysis; assay type: ADME, organism-based; conditions: in vivo
MDA-MB-468 = assay: Antiproliferative activity against human MDA-MB-468 cells assessed as cell growth inhibition measured after 4 to 6 days by celltiter-glo luminescent cell viability assay; assay type: functional, cell-based
COLO 205 [5] = assay: Antitumor activity against human COLO 205 cells xenografted in BALB/c mouse assessed as tumor growth at 3 mg/kg, po qd for 11 days measured post last dose relative to control; assay type: functional; conditions: time 11 day
COLO 205 [6] = assay: Antiproliferative activity against human COLO 205 cells assessed as cell growth inhibition measured after 4 to 6 days by celltiter-glo luminescent cell viability assay; assay type: functional, cell-based
[7] = Cmax in Sprague-Dawley rat at 6 mg/kg, po by LC-MS/MS analysis; assay type: ADME, organism-based; design: route oral, dose 6 mg/kg; conditions: in vivo
CDK4/Cyclin D3 = CDK4/Cyclin D3 (Homo sapiens, UniProt P11802); assay: Inhibition of recombinant human full-length N-terminal GST-fused CDK4 (1 to 303 residues)/GST-tagged CyclinD3 (1 to 292 residues) expressed in baculovirus expression system using ULight-elF4E-binding protein 1 peptide as substrate measured after 30 mins by LANCE assay
CDK4/Cyclin D3, sequence (P11802 whole entry, the tested form may be a part): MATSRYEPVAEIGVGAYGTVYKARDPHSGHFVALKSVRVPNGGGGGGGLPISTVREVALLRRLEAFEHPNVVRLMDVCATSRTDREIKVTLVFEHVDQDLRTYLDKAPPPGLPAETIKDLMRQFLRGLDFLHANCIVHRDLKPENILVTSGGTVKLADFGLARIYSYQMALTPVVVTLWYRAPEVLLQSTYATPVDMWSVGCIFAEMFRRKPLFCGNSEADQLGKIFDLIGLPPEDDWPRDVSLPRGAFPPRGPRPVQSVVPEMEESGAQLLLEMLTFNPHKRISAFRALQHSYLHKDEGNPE
CDK4/Cyclin D3, sequence (P30281 whole entry, further chain, the tested form may be a part): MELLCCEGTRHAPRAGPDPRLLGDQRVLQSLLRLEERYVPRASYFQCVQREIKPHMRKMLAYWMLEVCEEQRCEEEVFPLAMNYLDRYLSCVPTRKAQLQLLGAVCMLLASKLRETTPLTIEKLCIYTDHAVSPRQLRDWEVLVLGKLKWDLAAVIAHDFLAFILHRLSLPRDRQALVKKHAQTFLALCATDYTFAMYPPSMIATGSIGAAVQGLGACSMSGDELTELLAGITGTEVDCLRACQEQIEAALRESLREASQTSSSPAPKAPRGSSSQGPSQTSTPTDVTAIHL

[8] = Intrinsic clearance in human liver microsomes at 1 uM preincubated for 10 mins followed by NADPH addition and measured after 1 hr by LC-MS/MS analysis; assay type: ADME, Microsome; conditions: time 70 min, read-out: CLH
[9] = Toxicity in human COLO 205 cells xenografted BALB/c mouse assessed as body weight loss at 3 mg/kg, po qd for 11 days relative to control; assay type: organism-based; conditions: in vivo, time 11 day
[10] = AUC (0 to t) in Sprague-Dawley rat at 6 mg/kg, po by LC-MS/MS analysis; assay type: ADME, organism-based; design: dose 6 mg/kg; conditions: in vivo
[11] = AUC (0 to t) in BALB/c mouse at 3 mg/kg, iv by LC-MS/MS analysis; assay type: ADME, organism-based; design: dose 3 mg/kg; conditions: in vivo
[12] = Half life in BALB/c mouse at 3 mg/kg, iv by LC-MS/MS analysis; assay type: ADME, organism-based; conditions: in vivo
[13] = Toxicity in human COLO 205 cells xenografted BALB/c mouse assessed as body weight loss at 30 mg/kg, po q3d for 11 days relative to control; assay type: organism-based; conditions: in vivo, time 11 day
CYP1A2 = target: T1, CYP1A2 (Homo sapiens, UniProt P05177); assay: Inhibition of CYP1A2 in human liver microsomes at 10 uM measured after 20 mins in presence of NADPH by LC-MS/MS analysis relative to control; assay type: ADME
T1 sequence (P05177 whole entry): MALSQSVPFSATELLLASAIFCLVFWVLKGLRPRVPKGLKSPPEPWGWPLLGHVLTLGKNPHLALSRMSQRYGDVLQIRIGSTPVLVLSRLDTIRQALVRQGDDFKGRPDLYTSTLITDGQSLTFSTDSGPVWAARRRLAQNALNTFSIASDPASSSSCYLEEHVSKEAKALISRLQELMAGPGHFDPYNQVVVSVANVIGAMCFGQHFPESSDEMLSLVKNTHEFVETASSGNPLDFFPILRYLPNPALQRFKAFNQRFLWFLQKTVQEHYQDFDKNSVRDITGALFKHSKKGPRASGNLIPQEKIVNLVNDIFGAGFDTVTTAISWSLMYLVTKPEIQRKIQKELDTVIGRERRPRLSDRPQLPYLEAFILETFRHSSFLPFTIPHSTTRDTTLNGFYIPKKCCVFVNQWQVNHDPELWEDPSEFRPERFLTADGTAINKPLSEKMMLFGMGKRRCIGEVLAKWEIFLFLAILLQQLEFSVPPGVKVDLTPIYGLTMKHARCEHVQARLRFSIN

[14] = Oral bioavailability in Sprague-Dawley rat at 6 mg/kg by LC-MS/MS analysis; assay type: ADME, organism-based; conditions: in vivo
COLO 205 [15] = assay: Antitumor activity against human COLO 205 cells xenografted in BALB/c mouse assessed as tumor growth inhibition at 30 mg/kg, po q3d for 11 days relative to control; assay type: functional; conditions: COLO 205, po, time 11 day, read-out: TGI

CDK9/cyclin T1, sequence (O60563 whole entry): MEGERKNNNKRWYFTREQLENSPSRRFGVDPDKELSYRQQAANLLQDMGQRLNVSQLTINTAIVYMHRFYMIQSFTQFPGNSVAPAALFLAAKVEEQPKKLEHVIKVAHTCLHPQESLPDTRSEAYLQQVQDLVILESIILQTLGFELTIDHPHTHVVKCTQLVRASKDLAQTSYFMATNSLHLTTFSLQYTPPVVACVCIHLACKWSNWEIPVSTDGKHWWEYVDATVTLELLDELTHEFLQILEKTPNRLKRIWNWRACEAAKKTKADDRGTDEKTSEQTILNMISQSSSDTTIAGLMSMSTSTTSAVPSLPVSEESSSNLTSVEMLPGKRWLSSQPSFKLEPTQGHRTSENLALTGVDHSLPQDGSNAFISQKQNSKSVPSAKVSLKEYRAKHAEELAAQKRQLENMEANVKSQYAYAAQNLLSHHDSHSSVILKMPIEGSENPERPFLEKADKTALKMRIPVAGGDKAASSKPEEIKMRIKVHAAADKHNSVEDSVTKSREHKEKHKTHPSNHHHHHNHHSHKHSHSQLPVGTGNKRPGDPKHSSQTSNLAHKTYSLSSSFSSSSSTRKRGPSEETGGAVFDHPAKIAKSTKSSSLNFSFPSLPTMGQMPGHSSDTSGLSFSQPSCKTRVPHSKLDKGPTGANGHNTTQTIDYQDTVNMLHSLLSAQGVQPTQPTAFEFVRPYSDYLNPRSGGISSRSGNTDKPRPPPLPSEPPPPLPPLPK
CDK9/cyclin T1, sequence (P50750 whole entry): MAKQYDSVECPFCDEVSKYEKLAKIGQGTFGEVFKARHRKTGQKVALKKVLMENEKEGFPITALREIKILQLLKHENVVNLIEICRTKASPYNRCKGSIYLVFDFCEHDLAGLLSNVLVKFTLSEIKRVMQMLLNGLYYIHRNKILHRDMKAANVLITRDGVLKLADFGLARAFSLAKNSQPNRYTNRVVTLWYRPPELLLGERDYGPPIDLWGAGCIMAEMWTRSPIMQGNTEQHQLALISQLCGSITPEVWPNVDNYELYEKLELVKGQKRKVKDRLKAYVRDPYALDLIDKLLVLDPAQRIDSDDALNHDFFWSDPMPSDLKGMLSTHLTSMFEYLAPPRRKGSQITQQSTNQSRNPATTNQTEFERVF

SMILES: CC(=O)c1c(C)c2cnc(Nc3ccc(N4CCNCC4)cc3)nc2n2cc(C(C)C)nc12
- Vd [1]: 35.2 L/kg
- IC50 (CDK9/cyclin T1): 23.4 nM
- Activity [2]: < 20%
- AUC(0-t) [3]: 318 ng·h/mL
- half-life [4]: 4.08 h
- IC50 (MDA-MB-468): 874 nM
- T/C (COLO 205 [5]): 33%
- IC50 (COLO 205 [6]): 56.4 nM
- Cmax [7]: 110 ng/mL
- IC50 (CDK4/Cyclin D3): 0.8 nM
- microsomal CLint at 1 µM [8]: 6 µL/min/mg
- Activity [9]: < 20%
- AUC(0-t) [10]: 1120 ng·h/mL
- AUCt [11]: 472 ng·h/mL
- half-life [12]: 6.17 h
- Activity [13]: < 20%
- inhibition at […], 10 µM (CYP1A2): 17%
- bioavailability [14]: 65.2%
- inhibition in vivo at 30 mg/kg (COLO 205 [15]): 85%
